The source made the active and inactive calls. No cut-off for these calls is given here.

The subject of data set [1] is MDA-MB-231. The data set is described as follows: Antiproliferative activity against human MDA-MB-231 cells assessed as cell viability incubated for 48 hrs measured after additional incubation with MTT. Type of data set: functional, cell-based. The note with it: MDA-MB-231, 48 h.
The subject of data set [2] is MDA-MB-468. Put plainly: Antiproliferative activity against human MDA-MB-468 cells assessed as cell viability incubated for 48 hrs measured after additional incubation with MTT. Type of data set: functional, cell-based. The settings on record: MDA-MB-468, 48 h.
The nature of data set [3]: Antiproliferative activity against human MCF-10A cells assessed as cell viability incubated for 48 hrs measured after additional incubation with MTT. Type of data set: toxicity, cell-based.
A further data set concerns L02. Put plainly: Antiproliferative activity against human L02 cells assessed as cell viability incubated for 48 hrs measured after additional incubation with MTT. Type of data set: functional, cell-based. The settings on record: L02, 48 h.
In data set [4] the target is Signal transducer and activator of transcription 3 (Homo sapiens) (UniProt P40763). The data set is described as follows: Suppression of STAT3 activation in human MDA-MB-231 cell assessed as decrease in phosphorylated STAT3 (p-STAT3 Tyr705) level at 3 uM measured after 24 hrs by Western blot analysis. Type of data set: cell-based.
Chain of Signal transducer and activator of transcription 3 (Homo sapiens) (P40763 whole entry): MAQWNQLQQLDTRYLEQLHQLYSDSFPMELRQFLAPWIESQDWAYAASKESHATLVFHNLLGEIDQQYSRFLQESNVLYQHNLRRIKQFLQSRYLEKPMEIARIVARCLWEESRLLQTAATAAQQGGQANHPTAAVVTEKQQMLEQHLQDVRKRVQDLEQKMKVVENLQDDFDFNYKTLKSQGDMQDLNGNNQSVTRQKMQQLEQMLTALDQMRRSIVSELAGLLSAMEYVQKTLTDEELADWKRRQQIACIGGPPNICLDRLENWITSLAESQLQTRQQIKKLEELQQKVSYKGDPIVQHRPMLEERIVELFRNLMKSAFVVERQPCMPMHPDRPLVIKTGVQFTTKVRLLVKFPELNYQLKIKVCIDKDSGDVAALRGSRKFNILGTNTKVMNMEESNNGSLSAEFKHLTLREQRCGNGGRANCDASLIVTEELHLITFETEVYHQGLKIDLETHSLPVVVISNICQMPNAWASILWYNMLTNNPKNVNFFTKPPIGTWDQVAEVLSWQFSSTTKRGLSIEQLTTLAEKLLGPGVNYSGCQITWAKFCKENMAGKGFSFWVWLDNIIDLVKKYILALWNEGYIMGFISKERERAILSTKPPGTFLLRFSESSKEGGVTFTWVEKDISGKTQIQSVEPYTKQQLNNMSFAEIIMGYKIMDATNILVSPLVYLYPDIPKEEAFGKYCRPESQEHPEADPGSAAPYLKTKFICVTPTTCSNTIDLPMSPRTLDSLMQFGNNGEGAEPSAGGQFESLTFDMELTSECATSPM
The target is the same in data set [5]. The data set is described as follows: Suppression of STAT3 activation in human MDA-MB-468 cell assessed as decrease in phosphorylated STAT3 (p-STAT3 Tyr705) level at 3 uM measured after 24 hrs by Western blot analysis. Type of data set: cell-based.
Data set [6] can be described thus: Half life in male rat at 10 mg/kg, po measured upto 24 hrs by LC/MS/MS analysis. Type of data set: ADME, organism-based. The settings on record: in vivo.
Data set [7] is described as follows: Half life in male rat at 10 mg/kg, ip measured upto 24 hrs by LC/MS/MS analysis. The note with it: in vivo. Type of data set: ADME, organism-based.
Data set [8] is described as follows: Half life in male rat at 5 mg/kg, iv measured upto 24 hrs by LC/MS/MS analysis. Type of data set: ADME, organism-based. The note with it: in vivo.
The nature of data set [9]: AUC(0 to t) in male rat at 10 mg/kg, po measured upto 24 hrs by LC/MS/MS analysis. Type of data set: ADME, organism-based. The note with it: in vivo.
The nature of data set [10]: AUC(0 to t) in male rat at 10 mg/kg, ip measured upto 24 hrs by LC/MS/MS analysis. Type of data set: ADME, organism-based. The note with it: in vivo.
Data set [11] is described as follows: AUC(0 to t) in male rat at 5 mg/kg, iv measured upto 24 hrs by LC/MS/MS analysis. The note with it: in vivo. Type of data set: ADME, organism-based.
Data set [12] can be described thus: AUC(0 to infinity) in male rat at 10 mg/kg, po measured upto 24 hrs by LC/MS/MS analysis. Type of data set: ADME, organism-based. The note with it: in vivo.
A short description of data set [13]: AUC(0 to infinity) in male rat at 10 mg/kg, ip measured upto 24 hrs by LC/MS/MS analysis. Type of data set: ADME, organism-based. The settings on record: in vivo.
The nature of data set [14]: AUC(0 to infinity) in male rat at 5 mg/kg, iv measured upto 24 hrs by LC/MS/MS analysis. Type of data set: ADME, organism-based. The settings on record: in vivo.
The nature of data set [15]: Cmax in male rat at 10 mg/kg, po measured upto 24 hrs by LC/MS/MS analysis. The settings on record: in vivo. Type of data set: ADME, organism-based.
Data set [16] can be described thus: Cmax in male rat at 10 mg/kg, ip measured upto 24 hrs by LC/MS/MS analysis. Type of data set: ADME, organism-based. The settings on record: in vivo.
Data set [17] is described as follows: Cmax in male rat at 5 mg/kg, iv measured upto 24 hrs by LC/MS/MS analysis. Type of data set: ADME, organism-based. The settings on record: in vivo.
The nature of data set [18]: Tmax in male rat at 10 mg/kg, po measured upto 24 hrs by LC/MS/MS analysis. Type of data set: ADME, organism-based. The note with it: in vivo.
The nature of data set [19]: Tmax in male rat at 10 mg/kg, ip measured upto 24 hrs by LC/MS/MS analysis. Type of data set: ADME, organism-based. The note with it: in vivo.
The nature of data set [20]: Tmax in male rat at 5 mg/kg, iv measured upto 24 hrs by LC/MS/MS analysis. The note with it: in vivo. Type of data set: ADME, organism-based.
Data set [21] can be described thus: Oral bioavailability in male rat at 10 mg/kg measured upto 24 hrs by LC/MS/MS analysis. Type of data set: ADME, organism-based. The note with it: in vivo.
In data set [22] the test system is MDA-MB-231. The data set is described as follows: Induction of apoptosis in human MDA-MB-231 cells assessed as early apoptotic cells at 5 uM measured after 24 hrs incubation by the annexin V/propidium iodide (PI) double staining assay (reference value: 2.46%). Type of data set: functional.
The subject of data set [23] is MDA-MB-231. Put plainly: Induction of apoptosis in human MDA-MB-231 cells assessed as late apoptotic cells at 5 uM measured after 24 hrs incubation by the annexin V/propidium iodide (PI) double staining assay (reference value: 2.69%). Type of data set: functional.
Data set [24] concerns MDA-MB-468. Put plainly: Induction of apoptosis in human MDA-MB-468 cells assessed as early apoptotic cells at 5 uM measured after 24 hrs incubation by the annexin V/propidium iodide (PI) double staining assay (reference value: 3.98%). Type of data set: functional.
The test system of data set [25] is MDA-MB-468. The data set is described as follows: Induction of apoptosis in human MDA-MB-468 cells assessed as late apoptotic cells at 5 uM measured after 24 hrs incubation by the annexin V/propidium iodide (PI) double staining assay (reference value: 3.64%). Type of data set: functional.

Regarding `O=C1C(=O)c2c(oc3c2CCN(CCO)C3)-c2ccccc21`, the IC50 was determined as 1190 nM in the data set with MDA-MB-231 [1], 1570 nM in the data set with MDA-MB-468 [2] and 3910 nM with L02. For the same compound, the IC50 at 48 h in [3] was found to be 2890 nM. For the same compound, the inhibition entry in data set [4] and in [5] was “Active” each time. The half-life was 4 h in data set [6], 3.5 h in data set [7] and 2.4 h in [8]. The AUC(0-t) at 24 h in data set [9] was determined as 47.2 ng·h/mL; in data set [10] it was 219 ng·h/mL; in data set [11], 611 ng·h/mL. Further, the AUC(0-inf) was 50.1 ng·h/mL in [12], 241 ng·h/mL in data set [13] and 645 ng·h/mL in data set [14]. The Cmax in [15] amounted to 34.4 ng/mL; in data set [16] it was 107 ng/mL; in data set [17], 237 ng/mL. The figures for the Tmax in data set [18], in data set [19] and in data set [20] were 1.1 h, 0.7 h and 4.8 min, respectively. In data set [21], this compound had a bioavailability of 3.8%.

As to `CC(C)C[C@@H](CO)N1CCc2c(oc3c2C(=O)C(=O)c2ccccc2-3)C1.Cl`, the half-life in data set [6] is 6.5 h; in [7], 17.2 h; in [8], 17.2 h. Moreover, the AUC(0-t) at 24 h is 107 ng·h/mL in data set [9], 571 ng·h/mL in data set [10] and 490 ng·h/mL in data set [11]. Also, the AUC(0-inf) worked out at 106 ng·h/mL in data set [12], 523 ng·h/mL in data set [13] and 493 ng·h/mL in data set [14]. Also, the peak concentration (Cmax) came out at 78.4 ng/mL in data set [15], 272 ng/mL in data set [16] and 972 ng/mL in data set [17]. The Tmax in data set [18] came to 0.4 h; in data set [19], 0.1 h; in [20], 4.8 min. The compound further registered a bioavailability in [21] of 10.9%.

With `CC(=O)c1cc2c(o1)C(=O)c1ccccc1C2=O` [NAPABUCASIN], the IC50 was 2940 nM in the data set with MDA-MB-231 [1] and 5220 nM in the data set on MDA-MB-468 [2]. Further, the IC50 at 48 h in data set [3] was found to be 7940 nM. Moreover, the Activity with MDA-MB-231 [22] came out at 4.76%; in the data set with MDA-MB-231 [23], 12.07%; with MDA-MB-468 [24], 6.32%; in the data set on MDA-MB-468 [25] it was 10%.

Source of the values: ChEMBL document CHEMBL5614424, “Natural Product-Inspired Discovery of Naphthoquinone-Furo-Piperidine Derivatives as Novel STAT3 Inhibitors for the Treatment of Triple-Negative Breast Cancer” (J Med Chem, 2024).
